Consider 22 compounds from patent US7566712B2, “Biaryl piperazinyl-pyridine analogues” (Neurogen Corporation, priority 2003, dated 2009).

This assay addresses T1, human capsaicin receptor (Homo sapiens, UniProt Q8NER1).
T1 construct: pBK-CMV expression construct encoding the full length human capsaicin receptor; expressed in transfected cells
Briefly: Calcium mobilization assay, determination of antagonist activity (Example 6). The class given is cell-based. The following applies: Table II; IC50 determined as described in Example 6. Summed up: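 HEK293 clonal lines stably expressing full-length human capsaicin receptor, loaded with Fluo-3 AM in KRH buffer pH 7.4, 1–2 h at 37 °C. Compounds (1–5 μM final) preincubated 0.5–6 h at room temperature, then capsaicin at its EC50 added. FLIPR/Fluoroskan calcium signal; IC50 as 50% decrease of capsaicin response.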
For orientation: Calcium flux is commonly read through the fluorescence of an indicator in the cells.

T1 sequence (Q8NER1 whole entry): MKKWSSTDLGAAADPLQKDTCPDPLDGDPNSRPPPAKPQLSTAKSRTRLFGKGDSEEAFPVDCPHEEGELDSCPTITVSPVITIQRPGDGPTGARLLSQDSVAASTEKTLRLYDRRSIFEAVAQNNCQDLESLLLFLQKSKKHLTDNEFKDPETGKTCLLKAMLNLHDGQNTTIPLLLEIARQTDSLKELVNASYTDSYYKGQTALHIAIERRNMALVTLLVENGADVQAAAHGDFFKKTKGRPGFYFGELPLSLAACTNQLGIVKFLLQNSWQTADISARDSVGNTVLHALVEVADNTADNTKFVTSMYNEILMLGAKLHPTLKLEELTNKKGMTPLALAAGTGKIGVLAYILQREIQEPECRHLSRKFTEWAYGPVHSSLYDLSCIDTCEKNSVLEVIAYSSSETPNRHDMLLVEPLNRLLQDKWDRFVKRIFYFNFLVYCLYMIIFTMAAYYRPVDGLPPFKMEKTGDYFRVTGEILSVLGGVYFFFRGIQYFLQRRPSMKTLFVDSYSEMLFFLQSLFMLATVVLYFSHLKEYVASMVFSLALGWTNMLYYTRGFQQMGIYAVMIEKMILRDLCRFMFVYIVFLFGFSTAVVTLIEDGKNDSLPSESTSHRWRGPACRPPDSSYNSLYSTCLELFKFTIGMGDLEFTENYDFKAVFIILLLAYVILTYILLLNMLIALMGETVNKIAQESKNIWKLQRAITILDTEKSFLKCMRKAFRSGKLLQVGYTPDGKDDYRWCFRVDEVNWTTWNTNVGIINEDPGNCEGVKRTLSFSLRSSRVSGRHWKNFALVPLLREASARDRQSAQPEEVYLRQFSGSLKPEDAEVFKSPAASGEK

A word on the IC50: it is the concentration that inhibits the measured activity by half. Take `Fc1ccc(-c2cc(N3CCN(c4ncccc4C(F)(F)F)CC3)nc(O[C@H]3CCOC3)n2)cc1Cl` [Example 545, 4-(3-chloro-4-fluorophenyl)-2-[(3S)-tetrahydrofuran-3-yloxy]-6-{4-[3-(trifluoromethyl)pyridin-2-yl]piperazin-1-yl}pyrimidine]: the IC50 was at most 1000 nM.
The result for `Fc1ccc(-c2cc(N3CCN(c4ncccc4C(F)(F)F)CC3)nc(N3CCNCC3)n2)cc1Cl` [Example 546, 4-(3-chloro-4-fluorophenyl)-2-piperazin-1-yl-6-{4-[3-(trifluoromethyl)pyridin-2-yl]piperazin-1-yl}pyrimidine] reads at most 1000 nM; that for `CCCN1CCN(c2nc(-c3ccc(F)c(Cl)c3)cc(N3CCN(c4ncccc4C(F)(F)F)CC3)n2)CC1` [Example 547, 4-(3-chloro-4-fluorophenyl)-2-(4-propylpiperazin-1-yl)-6-{4-[3-(trifluoromethyl)pyridin-2-yl]piperazin-1-yl}pyrimidine], at most 1000 nM.
`COC(CN(C)c1nc(-c2ccc(F)c(Cl)c2)cc(N2CCN(c3ncccc3C(F)(F)F)CC2)n1)OC` [Example 548, 4-(3-chloro-4-fluorophenyl)-N-(2,2-dimethoxyethyl)-N-methyl-6-{4-[3-(trifluoromethyl)pyridin-2-yl]piperazin-1-yl}pyrimidin-2-amine]: the half-inhibitory concentration (IC50) is at most 1000 nM.
For the compound `CN(CCO)c1nc(-c2ccc(F)c(Cl)c2)cc(N2CCN(c3ncccc3C(F)(F)F)CC2)n1` [Example 549, 2-[(4-(3-chloro-4-fluorophenyl)-6-{4-[3-(trifluoromethyl)pyridin-2-yl]piperazin-1-yl}pyrimidin-2-yl)(methyl)amino]ethanol], the IC50 was at most 1000 nM.
`COC[C@@H]1CCCN1c1nc(-c2ccc(F)c(Cl)c2)cc(N2CCN(c3ncccc3C(F)(F)F)CC2)n1` [Example 550, 4-(3-chloro-4-fluorophenyl)-2-[(2S)-2-(methoxymethyl)pyrrolidin-1-yl]-6-{4-[3-(trifluoromethyl)pyridin-2-yl]piperazin-1-yl}pyrimidine]: the IC50 was at most 1000 nM.
Regarding `O=C(O)[C@@H]1CCCN1c1nc(-c2ccc(F)c(Cl)c2)cc(N2CCN(c3ncccc3C(F)(F)F)CC2)n1` [Example 552, 1-(4-(3-chloro-4-fluorophenyl)-6-{4-[3-(trifluoromethyl)pyridin-2-yl]piperazin-1-yl}pyrimidin-2-yl)-L-proline], the IC50 is at most 1000 nM.
The value for `Fc1ccc(-c2cc(N3CCN(c4ncccc4C(F)(F)F)CC3)nc(OCC3CC3)n2)cc1Cl` [Example 553, 4-(3-chloro-4-fluorophenyl)-2-(cyclopropylmethoxy)-6-{4-[3-(trifluoromethyl)pyridin-2-yl]piperazin-1-yl}pyrimidine] was at most 1000 nM; that for `COCCOc1nc(-c2ccc(F)c(Cl)c2)cc(N2CCN(c3ncccc3C(F)(F)F)CC2)n1` [Example 554, 4-(3-chloro-4-fluorophenyl)-2-(2-methoxyethoxy)-6-{4-[3-(trifluoromethyl)pyridin-2-yl]piperazin-1-yl}pyrimidine] was at most 1000 nM; that for `COCCCOc1nc(-c2ccc(F)c(Cl)c2)cc(N2CCN(c3ncccc3C(F)(F)F)CC2)n1` [Example 555, 4-(3-chloro-4-fluorophenyl)-2-(3-methoxypropoxy)-6-{4-[3-(trifluoromethyl)pyridin-2-yl]piperazin-1-yl}pyrimidine] was at most 1000 nM.
The value for `Fc1ccc(-c2cc(N3CCN(c4ncccc4C(F)(F)F)CC3)nc(OCC3CCCO3)n2)cc1Cl` (stereo not shown) [Example 556, 4-(3-chloro-4-fluorophenyl)-2-(tetrahydrofuran-2-ylmethoxy)-6-{4-[3-(trifluoromethyl)pyridin-2-yl]piperazin-1-yl}pyrimidine] was at most 1000 nM; that for `Fc1ccc(-c2cc(N3CCN(c4ncccc4C(F)(F)F)CC3)nc(OC3CCOCC3)n2)cc1Cl` [Example 557, 4-(3-chloro-4-fluorophenyl)-2-(tetrahydro-2H-pyran-4-yloxy)-6-{4-[3-(trifluoromethyl)pyridin-2-yl]piperazin-1-yl}pyrimidane] was at most 1000 nM.
The value for `Fc1ccc(-c2cc(N3CCN(c4ncccc4C(F)(F)F)CC3)nc(OCCN3CCCC3)n2)cc1Cl` [Example 558, 4-(3-chloro-4-fluorophenyl)-2-(2-pyrrolidin-1-ylethoxy)-6-{4-[3-(trifluoromethyl)pyridin-2-yf]piperazin-1-yl}pyrimidine] was at most 1000 nM; that for `CN1CCCC(Oc2nc(-c3ccc(F)c(Cl)c3)cc(N3CCN(c4ncccc4C(F)(F)F)CC3)n2)C1` (stereo not shown) [Example 559, 4-(3-chloro-4-fluorophenyl)-2-[(1-methylpiperidin-3-yl)oxy]-6-{4-[3-(trifluoromethyl)pyridin-2-yl]piperazin-1-yl}pyrimidine] was at most 1000 nM; that for `Fc1ccc(-c2cc(N3CCN(c4ncccc4C(F)(F)F)CC3)nc(OCC3CCNC3)n2)cc1Cl` (stereo not shown) [Example 560, 4-(3-chloro-4-fluorophenyl)-2-(pyrrolidin-3-ylmethoxy)-6-{4-(3-(trifluoromethyl)pyridin-2-yl]piperazin-1-yl}pyrimidine] was at most 1000 nM.
On to `Fc1ccc(-c2cc(N3CCN(c4ncccc4C(F)(F)F)CC3)nc(OC3CCNCC3)n2)cc1Cl` [Example 561, 4-(3-chloro-4-fluorophenyl)-2-(piperidin-4-yloxy)-6-{4-[3-(trifluoromethyl)pyridin-2-yl]piperazin-1-yl}pyrimidine], for which the 50% inhibitory concentration (IC50) was at most 1000 nM.
The value for `CN(C)C1CCN(c2nc(-c3ccc(F)c(Cl)c3)cc(N3CCN(c4ncccc4C(F)(F)F)CC3)n2)C1` (stereo not shown) [Example 562, 1-(4-(3-chloro-4-fluorophenyl)-6-{4-[3-(trifluoromethyl)pyridin-2-yl]piperazin-1-yl}pyrimidin-2-yl)-N,N-dimethylpyrrolidin-3-amine] was at most 1000 nM; that for `CCN(CC)C1CCN(c2nc(-c3ccc(F)c(Cl)c3)cc(N3CCN(c4ncccc4C(F)(F)F)CC3)n2)CC1` [Example 563, 1-(4-(3-chloro-4-fluorophenyl)-6-{4-[3-(trifluoromethyl)pyridin-2-yl]piperazin-1-yl}pyrimidin-2-yl)-N,N-diethylpiperidin-4-amine] was at most 1000 nM.
The value for `CN1CCC(N(C)c2nc(-c3ccc(F)c(Cl)c3)cc(N3CCN(c4ncccc4C(F)(F)F)CC3)n2)C1` (stereo not shown) [Example 564, 4-(3-chloro-4-fluorophenyl)-N-methyl-N-(1-methylpyrrolidin-3-yl)-6-{4-[3-(trifluoromethyl)pyridin-2-yl]piperazin-1-yl}pyrimidin-2-amine] was at most 1000 nM; that for `CN1CCC(N(C)c2nc(-c3ccc(F)c(Cl)c3)cc(N3CCN(c4ncccc4C(F)(F)F)CC3)n2)CC1` [Example 565] was at most 1000 nM.
The value for `CCN(CC)CCN(C)c1nc(-c2ccc(F)c(Cl)c2)cc(N2CCN(c3ncccc3C(F)(F)F)CC2)n1` [Example 566, N-1-(4-(3-chloro-4-fluorophenyl)-6-{4-[3-(trifluoromethyl)pyridin-2-yl]piperazin-1-yl}pyrimidin-2-yl)-N-2-,N-2-diethyl-N-1-methylethane-1,2-diamine] was at most 1000 nM; that for `NC(=O)[C@@H]1CCCN1c1nc(-c2ccc(F)c(Cl)c2)cc(N2CCN(c3ncccc3C(F)(F)F)CC2)n1` [Example 567, 1-(4-(3-chloro-4-fluorophenyl)-6-{4-[3-(trifluoromethyl)pyridin-2-yl]piperazin-1-yl}pyrimidin-2-yl)-L-prolinamide] was at most 1000 nM.
